Assays:
[1] = target: C-X-C chemokine receptor type 2 (Homo sapiens) (UniProt P25025); experiment: Activity against IL-8/H in the Eurofins Panlabs screen (BI) by Radioactive Assay; conditions: Compound concentration 10.0 uM
[2] = target: Protein kinase C gamma type (Homo sapiens) (UniProt P05129); experiment: Inhibitor of PKCGAMMA in the Eurofins Panlabs screen (BI) by Radioactive Assay; conditions: Compound concentration 10.0 uM
[3] = target: Adrenergic receptor alpha-2 (Rattus norvegicus) (UniProt P22086+P19328+P22909); experiment: Activity against ALPHA2/R in the Eurofins Panlabs screen (BI) by Others; format: protein assay; conditions: Compound concentration 10.0 uM
[4] = target: Serotonin 2 (5-HT2) receptor (Rattus norvegicus) (UniProt P30994+P08909+P14842); experiment: Activity against 5HT2/R in the Eurofins Panlabs screen (BI) by Radioactive Assay; format: protein assay; conditions: Compound concentration 10.0 uM
Rattus norvegicus [5] = species: Rattus norvegicus; experiment: Inhibitor of CALCINEUPP2B in the Eurofins Panlabs screen (BI) by Radioactive Assay; conditions: Compound concentration 10.0 uM
[6] = target: Muscarinic acetylcholine receptor (Oryctolagus cuniculus) (UniProt A0A5F9DUN4); experiment: Activity against M4/RB in the Eurofins Panlabs screen (BI) by Radioactive Assay; conditions: Compound concentration 10.0 uM
[7] = target: Muscarinic acetylcholine receptor M2 (Rattus norvegicus) (UniProt P10980); experiment: Activity against M2/R in the Eurofins Panlabs screen (BI) by Radioactive Assay; conditions: Compound concentration 10.0 uM
[8] = target: D(1B) dopamine receptor (Homo sapiens) (UniProt P21918); experiment: Activity against D5/HU in the Eurofins Panlabs screen (BI) by Radioactive Assay; conditions: Compound concentration 10.0 uM
[9] = target: Cholecystokinin receptor type A (Homo sapiens) (UniProt P32238); experiment: CCK1 (CCKA) Eurofins-Cerep binding assay; design: ligand concentration 0.08 nM; conditions: Compound concentration 10.0 uM
[10] = target: Sodium-dependent noradrenaline transporter (Homo sapiens) (UniProt P23975); experiment: norepinephrine transporter Eurofins-Cerep binding assay; design: ligand concentration 1 nM; conditions: Compound concentration 10.0 uM
[11] = target: Vasopressin V1a receptor (Rattus norvegicus) (UniProt P30560); experiment: Activity against V1/RA in the Eurofins Panlabs screen (BI) by Radioactive Assay; conditions: Compound concentration 10.0 uM
[12] = target: Potassium voltage-gated channel subfamily A member 1 (Rattus norvegicus) (UniProt P10499); experiment: Activity against K+/KA/R in the Eurofins Panlabs screen (BI) by Radioactive Assay; conditions: Compound concentration 10.0 uM
[13] = target: Vasoactive intestinal peptide receptor 1 (Cavia porcellus) (UniProt A0A286XMQ0); experiment: Activity against VIP1/GP in the Eurofins Panlabs screen (BI) by Radioactive Assay; conditions: Compound concentration 10.0 uM
[14] = target: Voltage-dependent N-type calcium channel subunit alpha-1B (Rattus norvegicus) (UniProt Q02294); experiment: Activity against CA+/N/RA in the Eurofins Panlabs screen (BI) by Radioactive Assay; conditions: Compound concentration 10.0 uM
[15] = target: Muscarinic acetylcholine receptor (Rattus norvegicus) (UniProt P08482+P08483+P08485+P08911+P10980); experiment: Activity against MUSCARIN/NS in the Eurofins Panlabs screen (BI) by Radioactive Assay; format: protein assay; conditions: Compound concentration 10.0 uM
Mus musculus = species: Mus musculus; experiment: Inhibitor of PHORBOLE/M in the Eurofins Panlabs screen (BI) by Radioactive Assay; conditions: Compound concentration 10.0 uM
[16] = target: Calpain-1 catalytic subunit (Homo sapiens) (UniProt P07384); experiment: Inhibitor of CALPAIN in the Eurofins Panlabs screen (BI) by FI - fluorescence intensity; conditions: Compound concentration 10.0 uM
[17] = target: Progesterone receptor (Bos taurus) (UniProt Q690N0); experiment: Activity against PROGEST/BO in the Eurofins Panlabs screen (BI) by Radioactive Assay; conditions: Compound concentration 10.0 uM
[18] = target: D(1A) dopamine receptor (Rattus norvegicus) (UniProt P18901); experiment: Activity against D1/R in the Eurofins Panlabs screen (BI) by Radioactive Assay; conditions: Compound concentration 10.0 uM
[19] = target: Glutamate receptor ionotropic, kainate 1 (Rattus norvegicus) (UniProt P22756); experiment: Activity against KAINATE/R in the Eurofins Panlabs screen (BI) by Radioactive Assay; conditions: Compound concentration 10.0 uM
[20] = target: Neutrophil elastase (Homo sapiens) (UniProt P08246); experiment: Activity against ELASTASEPMN in the Eurofins Panlabs screen (BI) by absorption of electromagnetic radiation; conditions: Compound concentration 30.0 uM
[21] = target: T1, Neuropeptide Y receptor type 2 (Homo sapiens, UniProt P49146); experiment: Radioligand binding assay (NPY2R, BHK); format: cell-based, BHK-21
T1 sequence (P49146 whole entry): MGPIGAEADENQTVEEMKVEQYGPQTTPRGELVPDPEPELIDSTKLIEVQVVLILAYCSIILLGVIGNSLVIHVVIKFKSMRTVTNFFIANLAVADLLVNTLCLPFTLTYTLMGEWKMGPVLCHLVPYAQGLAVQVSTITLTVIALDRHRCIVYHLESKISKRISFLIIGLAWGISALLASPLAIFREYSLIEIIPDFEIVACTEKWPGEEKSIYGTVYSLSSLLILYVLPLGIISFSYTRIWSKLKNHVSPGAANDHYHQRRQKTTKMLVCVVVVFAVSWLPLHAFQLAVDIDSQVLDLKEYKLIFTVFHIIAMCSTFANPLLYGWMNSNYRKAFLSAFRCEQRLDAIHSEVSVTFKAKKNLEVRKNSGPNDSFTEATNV

MAO-A = MAO-A (Homo sapiens, UniProt P21397); experiment: Agonist activity in the Eurofins Cerep SafetyScreen44 (BI) against MAO-A_ANTAG by Scintillation counting (Cerep_443); design: scale not given: the % may be the effect or the level left; conditions: rat; compound concentration 10 uM; target entry is the homologue from another species; read-out: % Ctrl
Oryctolagus cuniculus = species: Oryctolagus cuniculus; experiment: Activity against 5HT3/RB in the Eurofins Panlabs screen (BI) by Radioactive Assay; conditions: Compound concentration 10.0 uM
[22] = target: Opioid receptor (Rattus norvegicus) (UniProt P33533+P34975+P33535); experiment: Activity against OPIAT/NS in the Eurofins Panlabs screen (BI) by Radioactive Assay; format: protein assay; conditions: Compound concentration 10.0 uM
[23] = target: Estrogen receptor (Bos taurus) (UniProt P49884); experiment: Activity against ESTROGEN/BO in the Eurofins Panlabs screen (BI) by Radioactive Assay; conditions: Compound concentration 10.0 uM
[24] = target: Beta-1 adrenergic receptor (Oryctolagus cuniculus) (UniProt A0A4Y6F0G0); experiment: Activity against BETA1/RB in the Eurofins Panlabs screen (BI) by Radioactive Assay; conditions: Compound concentration 10.0 uM
[25] = target: Gamma-aminobutyric acid receptor subunit alpha-1 (Rattus norvegicus) (UniProt P62813); experiment: Activity against GABAACENTR in the Eurofins Panlabs screen (BI) by Radioactive Assay; conditions: Compound concentration 10.0 uM
[26] = target: T1, Neuropeptide Y receptor type 2; experiment: Radioligand binding assay (NPY2R, SMS-KAN cells); format: cell-based
[27] = target: Gamma-aminobutyric acid receptor subunit alpha-1 (Rattus norvegicus) (UniProt P62813); experiment: Activity against GABAACL+ in the Eurofins Panlabs screen (BI) by Radioactive Assay; conditions: Compound concentration 10.0 uM
[28] = target: Alpha-2A adrenergic receptor (Oryctolagus cuniculus) (UniProt Q5ZQK3); experiment: Activity against ALPHA2A/RB in the Eurofins Panlabs screen (BI) by Radioactive Assay; conditions: Compound concentration 10.0 uM
[29] = target: Insulin receptor (Rattus norvegicus) (UniProt P15127); experiment: Activity against INSULIN/R in the Eurofins Panlabs screen (BI) by Radioactive Assay; conditions: Compound concentration 10.0 uM
[30] = target: Neuropeptide Y receptor type 4 (Rattus norvegicus, UniProt Q63447); experiment: Radioligand binding assay (rat NPY4R, CHO cells); format: cell-based
[31] = target: Glycine receptor (Rattus norvegicus) (UniProt P22771+P24524+P07727+P20781); experiment: Activity against GLYCINSTRS in the Eurofins Panlabs screen (BI) by Radioactive Assay; format: protein-complex assay; conditions: Compound concentration 10.0 uM
Rattus norvegicus [32] = species: Rattus norvegicus; experiment: Activity against BETA/R in the Eurofins Panlabs screen (BI) by Radioactive Assay; conditions: Compound concentration 10.0 uM

Chain of Gamma-aminobutyric acid receptor subunit alpha-1 (Rattus norvegicus) (P62813 whole entry): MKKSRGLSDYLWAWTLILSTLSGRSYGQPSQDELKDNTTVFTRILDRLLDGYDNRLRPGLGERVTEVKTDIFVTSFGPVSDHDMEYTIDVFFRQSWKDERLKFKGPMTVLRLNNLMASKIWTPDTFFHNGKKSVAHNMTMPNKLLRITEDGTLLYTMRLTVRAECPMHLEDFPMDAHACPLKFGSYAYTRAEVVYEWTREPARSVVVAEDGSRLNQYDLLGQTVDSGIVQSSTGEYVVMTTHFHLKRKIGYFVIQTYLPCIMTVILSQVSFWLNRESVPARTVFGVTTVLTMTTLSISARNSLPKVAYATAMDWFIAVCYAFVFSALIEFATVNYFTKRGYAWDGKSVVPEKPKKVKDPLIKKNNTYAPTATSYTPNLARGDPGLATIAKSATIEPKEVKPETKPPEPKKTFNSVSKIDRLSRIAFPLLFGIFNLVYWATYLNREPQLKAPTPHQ
Chain of Progesterone receptor (Bos taurus) (Q690N0 as listed by the source): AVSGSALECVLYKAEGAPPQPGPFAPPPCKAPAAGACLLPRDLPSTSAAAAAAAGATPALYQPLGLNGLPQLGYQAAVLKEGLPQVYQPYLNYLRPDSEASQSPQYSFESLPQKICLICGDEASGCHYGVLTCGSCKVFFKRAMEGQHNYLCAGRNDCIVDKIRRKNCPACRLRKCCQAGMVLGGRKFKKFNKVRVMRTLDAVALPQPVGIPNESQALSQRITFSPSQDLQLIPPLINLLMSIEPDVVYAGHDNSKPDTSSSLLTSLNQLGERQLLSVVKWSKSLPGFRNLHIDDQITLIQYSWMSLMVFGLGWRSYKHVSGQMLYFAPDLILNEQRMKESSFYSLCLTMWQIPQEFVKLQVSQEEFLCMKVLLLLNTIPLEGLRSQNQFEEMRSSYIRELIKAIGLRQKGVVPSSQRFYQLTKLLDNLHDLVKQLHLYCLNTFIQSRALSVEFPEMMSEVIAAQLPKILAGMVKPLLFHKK
Chain of Glutamate receptor ionotropic, kainate 1 (Rattus norvegicus) (P22756 whole entry): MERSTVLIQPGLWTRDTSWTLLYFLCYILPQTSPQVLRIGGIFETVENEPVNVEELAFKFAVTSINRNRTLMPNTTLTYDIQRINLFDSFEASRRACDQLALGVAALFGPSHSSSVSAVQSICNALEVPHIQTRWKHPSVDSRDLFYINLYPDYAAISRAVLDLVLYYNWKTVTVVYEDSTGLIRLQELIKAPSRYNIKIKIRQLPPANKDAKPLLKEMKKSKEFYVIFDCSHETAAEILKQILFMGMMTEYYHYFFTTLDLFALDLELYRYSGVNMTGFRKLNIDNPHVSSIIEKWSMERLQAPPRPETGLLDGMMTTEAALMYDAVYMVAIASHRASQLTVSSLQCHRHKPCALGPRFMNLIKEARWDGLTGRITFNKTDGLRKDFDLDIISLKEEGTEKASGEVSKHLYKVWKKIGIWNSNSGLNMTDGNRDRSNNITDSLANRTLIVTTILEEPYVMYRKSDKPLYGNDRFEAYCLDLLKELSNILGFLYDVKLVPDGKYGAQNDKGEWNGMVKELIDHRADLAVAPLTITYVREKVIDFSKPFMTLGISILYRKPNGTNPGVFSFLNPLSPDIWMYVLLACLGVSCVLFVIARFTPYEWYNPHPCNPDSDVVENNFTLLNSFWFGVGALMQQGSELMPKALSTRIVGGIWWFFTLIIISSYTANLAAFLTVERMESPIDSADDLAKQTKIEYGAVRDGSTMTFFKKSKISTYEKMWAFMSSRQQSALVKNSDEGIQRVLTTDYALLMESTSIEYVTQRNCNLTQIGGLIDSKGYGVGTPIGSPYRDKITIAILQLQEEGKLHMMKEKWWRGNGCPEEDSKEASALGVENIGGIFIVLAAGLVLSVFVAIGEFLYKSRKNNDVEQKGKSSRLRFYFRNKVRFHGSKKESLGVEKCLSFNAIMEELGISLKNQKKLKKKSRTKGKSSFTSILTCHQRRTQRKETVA
Chain of Vasopressin V1a receptor (Rattus norvegicus) (P30560 whole entry, looked up): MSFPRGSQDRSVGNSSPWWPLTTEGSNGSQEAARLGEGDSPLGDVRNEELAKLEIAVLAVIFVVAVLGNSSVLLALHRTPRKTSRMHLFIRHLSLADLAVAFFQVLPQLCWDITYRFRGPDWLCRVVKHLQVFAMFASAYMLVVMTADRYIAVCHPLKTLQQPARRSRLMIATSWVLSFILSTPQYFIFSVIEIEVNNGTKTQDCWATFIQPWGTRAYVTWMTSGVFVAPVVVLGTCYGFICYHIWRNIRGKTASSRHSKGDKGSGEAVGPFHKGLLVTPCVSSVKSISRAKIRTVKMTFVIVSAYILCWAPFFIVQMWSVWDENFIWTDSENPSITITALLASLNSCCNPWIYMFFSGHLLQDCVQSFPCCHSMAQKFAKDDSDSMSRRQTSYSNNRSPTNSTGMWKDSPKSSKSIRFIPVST
Chain of Neutrophil elastase (Homo sapiens) (P08246 whole entry): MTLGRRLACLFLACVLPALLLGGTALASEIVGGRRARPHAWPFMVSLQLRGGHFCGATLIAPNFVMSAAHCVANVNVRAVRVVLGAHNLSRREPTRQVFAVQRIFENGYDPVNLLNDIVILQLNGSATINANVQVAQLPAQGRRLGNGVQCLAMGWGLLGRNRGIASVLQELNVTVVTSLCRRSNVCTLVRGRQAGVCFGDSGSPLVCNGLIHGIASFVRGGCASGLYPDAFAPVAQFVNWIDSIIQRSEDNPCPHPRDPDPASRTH
Chain of Cholecystokinin receptor type A (Homo sapiens) (P32238 whole entry): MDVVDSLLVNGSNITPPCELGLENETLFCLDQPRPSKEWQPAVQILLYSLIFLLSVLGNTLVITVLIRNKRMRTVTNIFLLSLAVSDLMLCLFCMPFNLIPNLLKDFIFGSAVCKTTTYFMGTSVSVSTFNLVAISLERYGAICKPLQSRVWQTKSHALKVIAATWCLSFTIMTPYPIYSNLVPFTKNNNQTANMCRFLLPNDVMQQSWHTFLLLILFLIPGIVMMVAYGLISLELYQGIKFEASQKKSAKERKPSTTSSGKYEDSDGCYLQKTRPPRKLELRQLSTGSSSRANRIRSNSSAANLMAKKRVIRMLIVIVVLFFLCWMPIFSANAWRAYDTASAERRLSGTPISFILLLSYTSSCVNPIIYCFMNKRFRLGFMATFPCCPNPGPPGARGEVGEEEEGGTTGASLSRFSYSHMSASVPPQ
Chain of D(1A) dopamine receptor (Rattus norvegicus) (P18901 whole entry): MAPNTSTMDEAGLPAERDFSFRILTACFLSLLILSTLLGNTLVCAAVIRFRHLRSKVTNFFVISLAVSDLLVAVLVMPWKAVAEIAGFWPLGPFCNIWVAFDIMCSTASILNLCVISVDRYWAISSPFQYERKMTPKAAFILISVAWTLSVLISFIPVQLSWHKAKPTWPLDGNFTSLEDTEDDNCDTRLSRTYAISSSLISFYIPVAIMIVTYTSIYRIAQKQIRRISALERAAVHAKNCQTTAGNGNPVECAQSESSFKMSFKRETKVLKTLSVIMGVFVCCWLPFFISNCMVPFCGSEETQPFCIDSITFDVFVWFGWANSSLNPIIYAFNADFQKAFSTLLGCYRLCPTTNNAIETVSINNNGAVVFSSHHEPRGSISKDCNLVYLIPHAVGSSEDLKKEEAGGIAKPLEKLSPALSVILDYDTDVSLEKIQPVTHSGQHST
Chain of Muscarinic acetylcholine receptor M2 (Rattus norvegicus) (P10980 whole entry): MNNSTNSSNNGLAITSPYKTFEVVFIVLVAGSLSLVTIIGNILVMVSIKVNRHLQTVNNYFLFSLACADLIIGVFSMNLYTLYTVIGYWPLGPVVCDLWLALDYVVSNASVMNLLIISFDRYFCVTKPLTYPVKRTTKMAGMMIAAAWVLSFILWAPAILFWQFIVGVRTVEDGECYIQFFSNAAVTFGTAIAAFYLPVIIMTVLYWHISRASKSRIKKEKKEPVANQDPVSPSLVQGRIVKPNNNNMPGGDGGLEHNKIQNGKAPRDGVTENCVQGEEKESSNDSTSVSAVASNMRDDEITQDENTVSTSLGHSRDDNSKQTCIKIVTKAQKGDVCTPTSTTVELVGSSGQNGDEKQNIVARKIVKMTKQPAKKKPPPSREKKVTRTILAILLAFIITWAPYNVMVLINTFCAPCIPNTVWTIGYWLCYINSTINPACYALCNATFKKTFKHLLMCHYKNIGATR
Chain of C-X-C chemokine receptor type 2 (Homo sapiens) (P25025 whole entry): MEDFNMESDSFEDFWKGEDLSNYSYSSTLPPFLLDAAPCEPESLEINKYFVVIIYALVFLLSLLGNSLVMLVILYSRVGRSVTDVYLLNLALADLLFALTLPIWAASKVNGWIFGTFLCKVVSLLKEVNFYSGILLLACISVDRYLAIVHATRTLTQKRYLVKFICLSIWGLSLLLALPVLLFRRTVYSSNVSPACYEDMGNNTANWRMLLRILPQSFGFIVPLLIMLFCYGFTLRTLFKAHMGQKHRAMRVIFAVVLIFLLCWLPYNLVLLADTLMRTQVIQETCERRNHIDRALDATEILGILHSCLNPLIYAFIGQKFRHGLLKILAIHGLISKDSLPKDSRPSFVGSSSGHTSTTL

N=C(N)NCCC[C@@H](NC(=O)C(c1ccccc1)c1ccccc1)C(=O)NCc1ccc(CNC(N)=O)cc1
residual activity [1]: 100%
residual activity [2]: 92%
residual activity [3]: 96%
residual activity [4]: 92%
residual activity (Rattus norvegicus [5]): 90%
residual activity [6]: 110%
residual activity [7]: 98%
residual activity [8]: 94%
residual activity [9]: 66%
residual activity [10]: 91%
residual activity [11]: 98%
residual activity [12]: 99%
residual activity [13]: 88%
residual activity [14]: 110%
residual activity [15]: 87%
residual activity (Mus musculus): 95%
residual activity [16]: 108%
residual activity [17]: 114%
residual activity [18]: 103%
residual activity [19]: 103%
residual activity [20]: 94%
IC50 [21]: > 1 µM (not active)
activity at 10 µM (MAO-A): 97% (not active)
residual activity (Oryctolagus cuniculus): 99%
residual activity [22]: 114%
residual activity [23]: 85%
residual activity [24]: 82%
residual activity [25]: 89%
IC50 [26]: > 10 µM (not active)
residual activity [27]: 84%
residual activity [28]: 82%
residual activity [29]: 98%
IC50 [30]: > 10 µM (not active)
residual activity [31]: 81%
residual activity (Rattus norvegicus [32]): 106%

Source: ChEMBL document CHEMBL5463723, “Data for DCP probe BIBO3304” (2023)
